Columns and labels:
Details in all cases: 72 h
Caco-2 [1] = assay: cell viability relative to DMSO; higher = less toxic
HepG2 [2] = assay: as above
U2OS [3] = assay: as above
Caco-2 [4] = assay: relative viability EC50 (midpoint between 100% and the lowest measured viability); higher = less toxic
HepG2 [5] = assay: as above
U2OS [6] = assay: as above
Caco-2 [7] = assay: drug sensitivity score (DSS) for viability; higher = more toxic; extreme values may be limits of the assay
HepG2 [8] = assay: as above
U2OS [9] = assay: as above
Calu-3 [10] = assay: cell viability relative to DMSO; higher = less toxic
Vero E6 [11] = assay: as above
Calu-3 [12] = assay: relative viability EC50 (midpoint between 100% and the lowest measured viability); higher = less toxic
Vero E6 [13] = assay: as above
Calu-3 [14] = assay: drug sensitivity score (DSS) for viability; higher = more toxic; extreme values may be limits of the assay
Vero E6 [15] = assay: as above

SMILES	cell viability (Caco-2 [1]; 1 nM) [%]	cell viability (Caco-2 [1]; 10 nM) [%]	cell viability (Caco-2 [1]; 100 nM) [%]	cell viability (Caco-2 [1]; 1000 nM) [%]	cell viability (Caco-2 [1]; 10000 nM) [%]	cell viability (HepG2 [2]; 1 nM) [%]	cell viability (HepG2 [2]; 10 nM) [%]	cell viability (HepG2 [2]; 100 nM) [%]	cell viability (HepG2 [2]; 1000 nM) [%]	cell viability (HepG2 [2]; 10000 nM) [%]	cell viability (U2OS [3]; 1 nM) [%]	cell viability (U2OS [3]; 10 nM) [%]	cell viability (U2OS [3]; 100 nM) [%]	cell viability (U2OS [3]; 1000 nM) [%]	cell viability (U2OS [3]; 10000 nM) [%]	relative viability EC50 (Caco-2 [4]) [µM]	relative viability EC50 (HepG2 [5]) [µM]	relative viability EC50 (U2OS [6]) [µM]	drug sensitivity score (Caco-2 [7])	drug sensitivity score (HepG2 [8])	drug sensitivity score (U2OS [9])	cell viability (Calu-3 [10]; 1 nM) [%]	cell viability (Calu-3 [10]; 10 nM) [%]	cell viability (Calu-3 [10]; 100 nM) [%]	cell viability (Calu-3 [10]; 1000 nM) [%]	cell viability (Calu-3 [10]; 10000 nM) [%]	cell viability (Vero E6 [11]; 1 nM) [%]	cell viability (Vero E6 [11]; 10 nM) [%]	cell viability (Vero E6 [11]; 100 nM) [%]	cell viability (Vero E6 [11]; 1000 nM) [%]	cell viability (Vero E6 [11]; 10000 nM) [%]	relative viability EC50 (Calu-3 [12]) [µM]	relative viability EC50 (Vero E6 [13]) [µM]	drug sensitivity score (Calu-3 [14])	drug sensitivity score (Vero E6 [15])
CC(=O)NNC(=O)N1Cc2ccccc2Oc2ccc(Cl)cc21	105	100	107	95.5	99.7	98.5	102	96.1	94	87.7	98.5	95.9	101	99.9	102	> 10	> 10	> 10	0	0.1	0														
Cc1cccc(C(=O)NCN2CCN(c3ccccc3C#N)CC2)c1	95.3	103	89.1	104	104	105	96.6	96.9	101	94.5	98.1	103	97.2	101	101	> 10	> 10	> 10	0	0	0														
Cc1oc2ccccc2c1CNC(=O)NCc1cccs1	103	106	98.4	96.9	96.6											> 10			0			92.4	93.4	96.2	89.9	99.3	103	107	102	96.9	97.9	> 10	> 10	0	0
Cn1cc(/C=C2\C(=O)Nc3cccnc32)c2ccccc21	97.9	94.4	95.2	94	91.7						93.9	98.4	95.3	101	99.5	> 10		> 10	0		0	88.6	114	102	109	122	96	97.1	92.7	87	106	> 10	> 10	0	0
N#C[C@@H]1C[C@@H]2C[C@@H]2N1C(=O)[C@@H](N)C12CC3CC(CC(O)(C3)C1)C2	101	98.6	95.8	104	98.2						98.5	102	93.5	100	87.7	> 10		> 10	0		0	98.2	108	92.8	108	97.7	95.5	104	97.8	97.9	96.6	> 10	> 10	0	0
Nc1nccc(Oc2ccc(NC(=O)c3cn(COP(=O)(O)O)cc(-c4ccc(F)cc4)c3=O)cc2F)c1Cl	97.2	96.8	94	94.5	90.2	104	102	108	99.8	35	97.9	103	98.7	104	106	> 10	3.15	> 10	0	3.6	0						106	103	105	97.5	102		> 10		0
OC[C@H]1O[C@@H](n2cnc3c(N[C@H]4CCC[C@@H]4O)ncnc32)[C@H](O)[C@@H]1O	103	99.3	104	101	107	86.2	84	95	102	94	99.4	100	98.6	97.1	102	> 10	> 10	> 10	0	0	0						103	102	98.9	99	97.3		> 10		0
